Source: article PMC4839156, “A bioavailable cathepsin S nitrile inhibitor abrogates tumor development” (Molecular Cancer, 2016)

Columns and labels:
Assay type in all cases: biochemical
cathepsin V = target: T1, cathepsin V (Homo sapiens, UniProt O60911); assay: recombinant enzyme, fluorogenic substrate Cbz-FR-AMC, Morrison plot Ki
T1 construct: gene CTSV

cathepsin S = target: T2, cathepsin S (Homo sapiens, UniProt P25774); assay: recombinant enzyme, fluorogenic substrate Cbz-VVR-AMC, Morrison plot Ki
T2 construct: gene CTSS
T2 sequence (P25774 115-331): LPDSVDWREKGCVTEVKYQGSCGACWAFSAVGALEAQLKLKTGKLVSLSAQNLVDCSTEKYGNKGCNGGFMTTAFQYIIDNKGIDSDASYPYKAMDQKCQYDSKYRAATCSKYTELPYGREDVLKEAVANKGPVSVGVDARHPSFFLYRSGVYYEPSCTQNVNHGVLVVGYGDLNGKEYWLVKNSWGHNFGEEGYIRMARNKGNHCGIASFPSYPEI

cathepsin B = target: T3, cathepsin B (Homo sapiens, UniProt P07858); assay: recombinant enzyme, fluorogenic substrate Cbz-RR-AMC, Morrison plot Ki
T3 construct: gene CTSB

cathepsin L = target: T4, cathepsin L (Homo sapiens, UniProt P07711); assay: recombinant enzyme, fluorogenic substrate Cbz-FR-AMC, Morrison plot Ki (limited activity)
T4 construct: gene CTSL
T4 sequence (P07711 114-288): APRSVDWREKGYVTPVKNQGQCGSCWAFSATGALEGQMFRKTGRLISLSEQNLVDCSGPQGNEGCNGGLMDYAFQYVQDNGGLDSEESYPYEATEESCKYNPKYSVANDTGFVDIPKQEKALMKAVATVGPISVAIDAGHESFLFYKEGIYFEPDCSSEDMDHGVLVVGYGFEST
T4 sequence (P07711 292-333): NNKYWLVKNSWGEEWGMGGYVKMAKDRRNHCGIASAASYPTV

cathepsin K = target: T5, cathepsin K (Homo sapiens, UniProt P43235); assay: recombinant enzyme, fluorogenic substrate Cbz-FR-AMC, Morrison plot Ki
T5 construct: gene CTSK
T5 sequence (P43235 115-329): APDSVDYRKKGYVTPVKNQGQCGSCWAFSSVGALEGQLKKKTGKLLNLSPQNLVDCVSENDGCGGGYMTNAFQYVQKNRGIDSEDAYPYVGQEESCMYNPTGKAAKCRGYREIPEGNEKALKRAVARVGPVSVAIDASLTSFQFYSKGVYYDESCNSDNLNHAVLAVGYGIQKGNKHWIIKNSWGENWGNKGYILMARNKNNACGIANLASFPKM

T1 sequence (O60911 114-334): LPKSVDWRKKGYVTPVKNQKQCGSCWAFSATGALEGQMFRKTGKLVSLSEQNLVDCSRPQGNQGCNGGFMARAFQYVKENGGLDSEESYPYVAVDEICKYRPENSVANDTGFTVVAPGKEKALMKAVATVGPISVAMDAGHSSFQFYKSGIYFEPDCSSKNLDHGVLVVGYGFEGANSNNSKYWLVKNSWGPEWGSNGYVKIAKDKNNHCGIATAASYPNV

Q: Which results are given for CS(=O)(=O)C[C@H](N[C@@H](c1ccc(F)cc1)C(F)(F)F)C(=O)NC1(C#N)CC1 [compound 6]?
A: Ki (cathepsin V): 784 nM; Ki (cathepsin S): 2.71 nM; Ki (cathepsin B): 1940 nM; Ki (cathepsin L): 7870 nM; Ki (cathepsin K): 155 nM
